{
  "source": "patent US20220280607A1",
  "about": "“Treatment of Heart Defects and Conditions in Pediatric Patients” (University of Pittsburgh - Of the Commonwealth System of …, priority 2019, published 2022)",
  "key": {"[1]": {"system": "heart muscle cells of neonatal mice", "assay": "Neonatal mice given beta blocker by retro-orbital injection (Examples 2 and 3): total cardiomyocytes, heart-body weight ratio", "assay_type": "in vivo, mouse", "settings": "retro-orbital injection twice a day, 1 μg/μl, 10 μl per g body weight; for heart-body-weight ratio: FIG. 17B, 18B; for total number of heart muscle cells (cardiomyocytes): P4 and P8 groups, FIG. 17A, 18A", "procedure": "(§1) Metoprolol was dissolved in PBS (1 μg/μl). The metoprolol was administered to neonatal mice using retro-orbital injection twice a day at the dose of 10 μl solution each 1 g body weight In the 4-day-old group (P4), the drug administration was performed at 9 am and 3 μm, respectively, from P1 and P3, then only injections at 9 am were performed at P4. The hearts were isolated at P4 in the afternoon. In the 8-day-old group (P8), the drug administration was performed at 9 am and 3 μm, respectively, from P1 and P7, then only injections at 9 am were performed at P8. The hearts were isolated at P8 in the afternoon.\nas §1, with “Alprenolol” for “Metoprolol”, “alprenolol” for “metoprolol”, “pm,” for “μm,”"}, "[2]": {"system": "cardiomyocytes of newborn mice", "assay": "Mouse pharmacological treatment of newborn mice: binucleated cardiomyocytes, cardiomyocyte endowment, cell cycle activity, heart weight", "assay_type": "in vivo", "settings": "newborn mice; for increase in the proportion of binucleated cardiomyocytes: forskolin 1 μg/g, 1 i.p. injection per day, FIG. 12B", "procedure": "[…] An equal volume of phosphate buffered saline (PBS) was injected in the control groups.\nIsolation of intact cardiomyocytes for quantification: We used a previously validated fixation digestion method to isolate intact cardiomyocytes from fresh or frozen myocardium for quantification (Mollova, M., et al. “Cardiomyocyte proliferation in human heart growth” Proceedings of the National Academy of Sciences January 2013, 110 (4) 1446-1451; DOI: 10.1073/pnas.1214608110). The myocardium was cut into 1 cubic millimeter (mm^3) sized tissue blocks followed by incubation with 3.7% formaldehyde at room temperature for 1.8 hours. After being washed with PBS 3 times to remove the formaldehyde, the fixed tissue blocks were digested in enzyme solution (Collagenase B, 3.6 mg/ml; Collagenase D, 4.8 mg/ml) at 37 degrees Celsius (° C.), with 10 revolutions per minute (rpm) overhead rotation. The digested cells were collected every 24 hours from the supernatant, and the undigested tissue was re-suspended with fresh enzyme solution until all of the tissue pieces were digested. All of the digested cells from the same heart were then combined and allowed to settle to the bottom of the tube. The cell pellet was collected for further study.\nCounting of cardiomyocytes after fixation and digestion: All fractions from the digestion of a heart were combined in 2 milliliters (mL) PBS and cardiomyocytes were quantified using a hemocytometer.\nIntact cardiomyocytes in suspension. To assess M-phase, intact cardiomyocytes were isolated by fixation-digestion. The solution containing the stained cells was then transferred to 8-well chambered cover glass (400 μl/well). After the cells were settled down to the bottom of the chambers, the number of mono/bi/multinucleated cardiomyocytes were counted with a fluorescence microscope, and the percentage of mono/bi/multinucleated cardiomyocytes was calculated. To quantify the proportion of H3P-positive cardiomyocytes, the concentration of stained cardiomyocytes in suspension (Ccardiomyocytes) was first measured using a hemocytometer. The cell suspension (400 μl) was then transferred to a well of a chamber slide, and the total number of H3P-positive cardiomyocytes (HH3P+) inside the well was counted with a TiE epifluorescence microscope. The proportion of the H3P-positive cardiomyocytes (PH3P+) was calculated using the following formula: […]\nHeart sections: To determine S-phase, BrdU (40 μg/g body) was administered to P7 ICR mice and the hearts were resected at P8, fixed, and cryosectioned at 15 μm thickness. From each heart, four heart sections at a distance of 300 μm were selected and imaged by tile scanning with a Nikon A1R confocal microscope. The total number of BrdU-positive cardiomyocytes at the selected heart sections was counted. The total area of the selected heart sections was measured by Fiji software. The density of BrdU-positive cardiomyocytes (cells/mm^2) in the hearts was calculated using the following equation: […]\nIntact cardiomyocytes in suspension. Cardiomyocytes were isolated from fresh or frozen (human or mouse) ventricle myocardium using the fixation-digestion method, followed by immunostaining as described above. The cells were then imaged and quantified with a Nikon A1R microscope for mono/bi/multi-nucleation."}, "[3]": {"system": "human fetal cardiomyocytes", "assay": "Cytokinesis failure in cultured human fetal cardiomyocytes (β-adrenergic receptor signaling pathway studies)", "assay_type": "cell-based", "settings": "cultured human fetal cardiomyocytes, 10 μM, FIG. 14C", "procedure": "Primary cardiomyocyte culture experiments: Neonatal (mouse or rat) cardiomyocytes or human fetal cardiomyocytes were plated in 4-well chamber slides pre-coated with fibronectin (10 μg/ml) at a density of 200,000 cells/well and cultured with DMEM/high glucose (for mouse and rat cardiomyocytes) or IMDM (for fetal human cardiomyocytes) containing 10% fetal bovine serum (FBS) and recombinant neuregulin 1 (rNRG1, 100 nanograms per milliliter (ng/ml)) overnight. All treatments and BrdU (30 micromolar (μM)) were added on the next day.\nβ-adrenergic receptor signaling pathway studies: Forskolin (10 μM), propranolol (10 μM), dobutamine (10 μM), or a combination of propranolol (10 μM) and dobutamine (10 μM) were added to the culture from day 1 to day 3. The cells were collected for examining gene expression or immunofluorescence microscopy at day 3.\nCardiomyocytes cultured on glass surfaces. […] The BrdU-positive nuclei, cell-cell boundaries (Pan-Cadherin antibody), and cardiomyocyte markers (α-actinin or troponin I antibody) were labeled by immunofluorescence. The stained cells were imaged under Nikon confocal microscope. The binucleated cardiomyocytes and all BrdU-positive cardiomyocytes were quantified using Fiji software."}, "[4]": {"system": "cardiomyocytes from infants with ToF/PS", "assay": "ToF/PS myocardium tissue (organotypic) culture: binucleated BrdU-labeled cardiomyocytes", "assay_type": "cell-based, human", "settings": "organotypic cultures of heart pieces from infants with ToF/PS, 10 μM, BrdU, FIG. 14E", "procedure": "ToF/PS myocardium tissue culture: Discarded myocardium samples were collected during ToF/PS surgery, cut into ˜1 mm^3 tissue blocks, and cultured in IMDM media containing 10% FBS, recombinant neuregulin 1 (rNRG1, 100 ng/ml), and BrdU (30 μM) for 6 days. Samples were treated with forskolin (10 μM), propranolol (10 μM), dobutamine (10 μM), or a combination of propranolol (10 μM) and dobutamine (10 μM).\nCultured ToF/PS myocardium. Cardiomyocytes were isolated from cultured myocardium with the fixation-digestion method. After denaturing the DNA with 2N HCl and neutralization with 2 Normal (N) sodium hydroxide (NaOH), immunofluorescence antibody labeling was performed in solution. The proportion of binucleated and BrdU-positive was quantified with a Nikon A1R microscope."}},
  "data": [
    {"smiles": "COCCc1ccc(OCC(O)CNC(C)C)cc1", "note": "(centres unmarked) [Metoprolol, 1-[4-(2-methoxyethyl)phenoxy]-3-(propan-2-ylamino)propan-2-ol]", "values": [
      {"measurement": "heart-body-weight ratio", "setting": "[1]", "value": "did not alter"},
      {"measurement": "total number of heart muscle cells (cardiomyocytes)", "setting": "[1]", "value": "did not alter"}
    ]},
    {"smiles": "C=CCc1ccccc1OCC(O)CNC(C)C", "note": "(centres unmarked) [alprenolol, 1-(propan-2-ylamino)-3-(2-prop-2-enylphenoxy)propan-2-ol]", "values": [
      {"measurement": "heart weight", "setting": "[2]; 2 i.p. injections per day, FIG. 16A, 16B", "value": "did not result in a change"},
      {"measurement": "increase of cardiomyocyte endowment", "setting": "[2]; at P8, 2 i.p. injections per day, counting fixation-digested hearts, FIG. 12D, 12H", "value": 24, "unit": "%"},
      {"measurement": "decrease of the proportion/formation of binucleated cardiomyocytes", "setting": "[2]; treatment from P1 to P8, 2 i.p. injections per day (propranolol 10 μg/g; alprenolol 10 μg/g, 40 μg/g), FIG. 12C, 12G", "value": 13, "unit": "%"},
      {"measurement": "heart-body-weight ratio", "setting": "[1]", "value": "without altering"},
      {"measurement": "total number of heart muscle cells (cardiomyocytes)", "setting": "[1]", "value": "increases"}
    ]},
    {"smiles": "CC(CCc1ccc(O)cc1)NCCc1ccc(O)c(O)c1", "note": "(centres unmarked) [dobutamine]", "values": [
      {"measurement": "binucleated cardiomyocytes as % of the Fsk-induced increase", "setting": "[3]", "value": 95.2, "unit": "%"},
      {"measurement": "proportion of binucleated cardiomyocytes", "setting": "[4]", "value": "maximal increase"}
    ]},
    {"smiles": "C=C[C@@]1(C)CC(=O)[C@]2(O)[C@@]3(C)[C@@H](O)CCC(C)(C)[C@@H]3[C@H](O)[C@H](OC(C)=O)[C@@]2(C)O1", "note": "[forskolin]", "values": [
      {"measurement": "increase in the proportion of binucleated cardiomyocytes", "setting": "[2]; after 4 days", "value": 37, "unit": "%"},
      {"measurement": "increase in the proportion of binucleated cardiomyocytes", "setting": "[2]; after 8 days", "value": 21, "unit": "%"}
    ]}
  ]
}
